According to patent US20240366809A1, “INHIBITOR OF PROSTATE SPECIFIC MEMBRANE ANTIGEN AND PHARMACEUTICAL USE THEREOF” (TIANJIN HENGRUI MEDICINE CO., LTD., priority 2021, published 2024):
Where “and” joins values, the source holds several entries; their conditions need not be identical. Equal entries are not always repeated.

Experiments:
[1] = Pharmacokinetics in blood of normal mice after single tail-vein injection; format: in vivo; conditions: for Blood % ID/g: normal mice, individual animals 1-4
Procedure: Through single tail-vein injections into mice, the pharmacokinetics of ^68Ga-v (Example 9) and PSMA-617 in blood was studied.
Each mouse was dosed at 50 μCi/100 μL, and blood samples were taken from the orbit 0.083, 0.25, 0.5, 1, 2, and 4 h post-dose (4 animals per time point). The blood samples were collected in pre-weighed sample tubes. The tubes were weighed and the weight of the blood samples was recorded. Then radioactivity counting was performed using a γ-counter. Meanwhile, a test sample was accurately diluted 100-fold, and 0.1 mL of the dilution was added to a counting tube and used as standard 1% ID (i.e., one percent of the injected dose). The radioactivity counts of the 1% ID standard and the biological samples were measured simultaneously on a γ-counter. The data on blood were expressed as the percentage of the radioactivity counts per gram of blood to the total injected dose (radioactivity counts) (% ID/g). Pharmacokinetic parameters were calculated from blood drug concentration data.

[2] = tested on: LnCaP tumor; assay: Biodistribution of 68Ga-labeled compounds in LnCaP tumor-bearing mice; format: in vivo
Procedure: After single tail-vein injections into mice, the in-vivo distributions of ^68Ga-labeled compound v (Example 9) and compound x (Example 11) in the positive LnCaP tumor-bearing mice were observed.
At 2 h after the injection, a total of 3 animals were sacrificed by cervical dislocation, and tissue samples were collected, including samples of the blood, the heart, the lungs, the liver, the spleen, the kidneys, the stomach, the intestine, the bones, the flesh, the brain, the salivary gland, the large intestine, the pancreas, and the tumor. The net weight of the tissues was measured first, and the radioactivity counts of the collected tissues were then measured using a γ-counter. The distributions of the labeled compounds in the different tissues and organs of the mice were measured. Meanwhile, a test sample was accurately diluted 100-fold, and 0.1 mL of the dilution was added to a counting tube and used as standard 1% ID (i.e., one percent of the injected dose). The radioactivity counts of the 1% ID standard and the biological samples were measured simultaneously on a γ-counter. The biodistribution data were expressed as the percentage of the radioactivity counts per gram of tissue or organ to the total injected dose (radioactivity counts) (% ID/g).

[3] = tested on: human organs; assay: Absorbed doses of radiation, estimates for human organs (OLINDA software)
Procedure: The AUC of drug metabolisms was calculated from the biodistribution (Bio-D) data and imported into the OLINDA software to generate doses of radiation absorbed by all the organs.

[4] = 2 h after injection, LnCaP tumor-bearing mice

time estimated using 5 effective half-lives ([1]; 5 effective half-lives): 2.27 h
content of the radioactive substance in the blood ([1]; 0.25 h after the injections, mean of n=4): 1.25±0.22 % ID/g
effective half-life Te ([1]; according to calculations): 27 min
elimination phase half-life ([1]; blood of mice): 45.5 min
half-life in the blood ([1]; blood of normal mice): 7.8 min
AUCINF_obs ([1]; blood of normal mice, 0-4 h): 1.66 ± 0.24 h* % ID/g
AUClast ([1]; blood of normal mice, 0-4 h): 1.67 ± 0.26 h* % ID/g
Cl_obs ([1]; blood of normal mice, 0-4 h): 12.17 ± 1.77 μCi/h* % ID/g
Cmax ([1]; blood of normal mice, 0-4 h): 5.06 ± 0.74 % ID/g
MRTlast ([1]; blood of normal mice, 0-4 h): 23.4 ± 1.2 min
Vz_obs ([1]; blood of normal mice, 0-4 h): 4.97 ± 1.09 μCi/% ID/g
t1/2 ([1]; blood of normal mice, 0-4 h): 7.8 min
t1/2 ([1]; blood of normal mice, 0-4 h, listed as 68Ga-V): 7.8 ± 2.4 min
time after dosing at which substantially metabolized ([1]; estimated as 5 times the half-life): 3.9 h
targeting effect on the LnCap tumor [2, 4]: good targeting effect on the LnCap tumor
tumor uptake, comparison in words [2, 4]: better than ^68Ga-x (Example 11)'s
uptake values in the other tissues ([2]; 2 h after injection, tissues other than tumor, kidneys, liver, lung, spleen): very low
uptake value in the LnCap tumor ([2]; 2 h after single tail-vein injection, LnCaP tumor-bearing mice): ~10 Id %/g
radiation dose estimate, Adrenals ([3]; human organ: Adrenals): 8.50E−03 mSv/MBq
radiation dose estimate, Brain ([3]; human organ: Brain): 3.99E−02 mSv/MBq
radiation dose estimate, Esophagus ([3]; human organ: Esophagus): 3.77E−03 mSv/MBq
radiation dose estimate, Eyes ([3]; human organ: Eyes): 1.84E−03 mSv/MBq
radiation dose estimate, Gallbladder Wall ([3]; human organ: Gallbladder Wall): 5.52E−03 mSv/MBq
radiation dose estimate, Heart Wall ([3]; human organ: Heart Wall): 1.62E−02 mSv/MBq
radiation dose estimate, Kidneys ([3]; human organ: Kidneys): 3.54E−02 mSv/MBq
radiation dose estimate, Left colon ([3]; human organ: Left colon): 6.87E−03 mSv/MBq
radiation dose estimate, Liver ([3]; human organ: Liver): 2.50E−02 mSv/MBq
radiation dose estimate, Lungs ([3]; human organ: Lungs): 1.05E−02 mSv/MBq
radiation dose estimate, Osteogenic Cells ([3]; human organ: Osteogenic Cells): 4.65E−03 mSv/MBq
radiation dose estimate, Pancreas ([3]; human organ: Pancreas): 9.51E−03 mSv/MBq
radiation dose estimate, Prostate ([3]; human organ: Prostate): 3.77E−03 mSv/MBq
radiation dose estimate, Rectum ([3]; human organ: Rectum): 1.99E−01 mSv/MBq
radiation dose estimate, Red Marrow ([3]; human organ: Red Marrow): 2.12E−03 mSv/MBq
radiation dose estimate, Right colon ([3]; human organ: Right colon): 3.43E−03 mSv/MBq
radiation dose estimate, Salivary Glands ([3]; human organ: Salivary Glands): 1.81E−03 mSv/MBq
radiation dose estimate, Small Intestine ([3]; human organ: Small Intestine): 1.31E−01 mSv/MBq
radiation dose estimate, Spleen ([3]; human organ: Spleen): 5.13E−02 mSv/MBq
radiation dose estimate, Stomach Wall ([3]; human organ: Stomach Wall): 8.54E−02 mSv/MBq
radiation dose estimate, Testes ([3]; human organ: Testes): 3.51E−04 mSv/MBq
radiation dose estimate, Thymus ([3]; human organ: Thymus): 1.99E−03 mSv/MBq
radiation dose estimate, Thyroid ([3]; human organ: Thyroid): 9.11E−04 mSv/MBq
radiation dose estimate, Urinary Bladder Wall ([3]; human organ: Urinary Bladder Wall): 2.27E−03 mSv/MBq
radiation dose estimate, Effective Dose ([3]; human: Effective Dose): 2.10E−02 mSv/MBq
radiation dose estimate, Total Body ([3]; human: Total Body): 0.496E−02 mSv/MBq
Compound: O=C([O-])CN1CCN(CC(=O)[O-])CCN(CC(=O)N2CCO[C@]3(CC[C@H](C(=O)N[C@@H](Cc4ccc5ccccc5c4)C(=O)NCCCC[C@H](NC(=O)N[C@@H](CCC(=O)O)C(=O)O)C(=O)O)CC3)C2)CCN(CC(=O)[O-])CC1.[68Ga+3] [^68Ga-v]
Blood % ID/g ([1]; 0.083 h post-dose): 5.89 % ID/g and 4.98 % ID/g and 5.26 % ID/g and 4.11 % ID/g
Blood % ID/g ([1]; 0.25 h post-dose): 1.33 % ID/g and 1.11 % ID/g and 1.52 % ID/g and 1.03 % ID/g
Blood % ID/g ([1]; 0.5 h post-dose): 1.15 % ID/g and 0.52 % ID/g and 0.79 % ID/g and 0.99 % ID/g
Blood % ID/g ([1]; 1 h post-dose): 0.33 % ID/g and 0.19 % ID/g (2×) and 0.16 % ID/g
Blood % ID/g ([1]; 2 h post-dose): 0.07 % ID/g and 0.13 % ID/g and 0.10 % ID/g and 0.11 % ID/g
Blood % ID/g ([1]; 4 h post-dose): 0.06 % ID/g and 0.02 % ID/g and 0.10 % ID/g and 0.08 % ID/g
absorbed dose of radiation, comparison with the labeled PSMA-617 in words ([3]; from Table 5): half of that resulting from ^68Ga-PSMA-617
